Measured values as given in article PMC8919667 (The Journal of Cell Biology, 2022).

T1: 6His-3FLAG-Cdc14 (Saccharomyces cerevisiae, UniProt Q00684)
T1 sequence (Q00684 1-551): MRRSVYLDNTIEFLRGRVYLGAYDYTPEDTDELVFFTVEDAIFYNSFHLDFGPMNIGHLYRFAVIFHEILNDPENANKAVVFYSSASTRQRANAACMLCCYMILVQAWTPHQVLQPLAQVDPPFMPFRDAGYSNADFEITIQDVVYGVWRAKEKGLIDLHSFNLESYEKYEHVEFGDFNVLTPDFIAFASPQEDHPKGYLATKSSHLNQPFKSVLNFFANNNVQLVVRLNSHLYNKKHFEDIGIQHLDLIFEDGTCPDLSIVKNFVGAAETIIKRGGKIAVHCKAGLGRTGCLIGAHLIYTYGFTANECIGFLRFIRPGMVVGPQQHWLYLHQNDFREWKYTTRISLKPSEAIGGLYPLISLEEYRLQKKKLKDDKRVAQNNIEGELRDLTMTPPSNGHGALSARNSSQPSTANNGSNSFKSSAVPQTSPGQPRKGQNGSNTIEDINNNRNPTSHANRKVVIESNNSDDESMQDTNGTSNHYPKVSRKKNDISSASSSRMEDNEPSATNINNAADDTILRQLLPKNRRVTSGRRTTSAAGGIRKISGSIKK

T2: 3HA-Atg13-p PxL2m (S. cerevisiae, UniProt Q06628 1-738, PxL2m (A207-IG), phosphorylated (Atg13-p); residues not stated)
T2 sequence (looked up): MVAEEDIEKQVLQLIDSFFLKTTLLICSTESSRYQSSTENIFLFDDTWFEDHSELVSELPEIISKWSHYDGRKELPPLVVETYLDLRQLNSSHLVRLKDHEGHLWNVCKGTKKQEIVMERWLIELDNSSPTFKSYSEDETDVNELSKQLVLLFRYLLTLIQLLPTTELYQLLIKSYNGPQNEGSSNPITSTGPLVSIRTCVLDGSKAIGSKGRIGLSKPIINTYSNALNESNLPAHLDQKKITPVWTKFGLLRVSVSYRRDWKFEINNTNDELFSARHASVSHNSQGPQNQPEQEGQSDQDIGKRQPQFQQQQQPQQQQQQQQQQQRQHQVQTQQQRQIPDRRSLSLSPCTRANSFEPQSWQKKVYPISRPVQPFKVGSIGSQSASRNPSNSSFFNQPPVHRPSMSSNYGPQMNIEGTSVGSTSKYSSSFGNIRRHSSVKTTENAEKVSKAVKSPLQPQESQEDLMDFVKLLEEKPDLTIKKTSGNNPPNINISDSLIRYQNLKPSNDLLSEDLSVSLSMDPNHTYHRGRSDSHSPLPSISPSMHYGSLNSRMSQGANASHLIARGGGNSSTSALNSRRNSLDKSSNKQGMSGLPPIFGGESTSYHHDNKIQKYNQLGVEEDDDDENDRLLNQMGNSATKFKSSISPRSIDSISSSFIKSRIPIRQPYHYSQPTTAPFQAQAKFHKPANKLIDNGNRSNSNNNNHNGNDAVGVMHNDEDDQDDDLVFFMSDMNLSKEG


Assays:
[1] = target: T1, 6His-3FLAG-Cdc14; assay: colorimetric p-nitrophenolate release, absorbance at […] nm; type: biochemical; conditions: 10 mM pNPP, 20 mM Tris pH 7.5, 4 mM MgCl2, 1 mM EGTA, room temperature
[2] = target: T2, 3HA-Atg13-p PxL2m; assay: pull-down

binding result [2] | Molecule | colorimetric p-nitrophenolate release, absorbance at 405 nm [1]
– | O=[N+]([O-])c1ccc(OP(=O)(O)O)cc1 [p-nitrophenyl phosphate] | 6His-3FLAG-Cdc14 exhibited concentration- and time-dependent phosphatase activity
binds | 6His-3FLAG-Cdc14-C283S (enzyme, S. cerevisiae, UniProt Q00684 1-551, looked up) MRRSVYLDNTIEFLRGRVYLGAYDYTPEDTDELVFFTVEDAIFYNSFHLDFGPMNIGHLYRFAVIFHEILNDPENANKAVVFYSSASTRQRANAACMLCCYMILVQAWTPHQVLQPLAQVDPPFMPFRDAGYSNADFEITIQDVVYGVWRAKEKGLIDLHSFNLESYEKYEHVEFGDFNVLTPDFIAFASPQEDHPKGYLATKSSHLNQPFKSVLNFFANNNVQLVVRLNSHLYNKKHFEDIGIQHLDLIFEDGTCPDLSIVKNFVGAAETIIKRGGKIAVHSKAGLGRTGCLIGAHLIYTYGFTANECIGFLRFIRPGMVVGPQQHWLYLHQNDFREWKYTTRISLKPSEAIGGLYPLISLEEYRLQKKKLKDDKRVAQNNIEGELRDLTMTPPSNGHGALSARNSSQPSTANNGSNSFKSSAVPQTSPGQPRKGQNGSNTIEDINNNRNPTSHANRKVVIESNNSDDESMQDTNGTSNHYPKVSRKKNDISSASSSRMEDNEPSATNINNAADDTILRQLLPKNRRVTSGRRTTSAAGGIRKISGSIKK | –
